Assays:
FLT3 = molecular target: T1, FLT3 (Homo sapiens, UniProt P36888); assay: HotSpot kinase assay, FLT3; type: biochemical; details: HotSpot radiometric 33P ATP assay, 25° C., 120 min
T1 construct: purchased Reaction Biology Corporation
T1 sequence (P36888 27-993): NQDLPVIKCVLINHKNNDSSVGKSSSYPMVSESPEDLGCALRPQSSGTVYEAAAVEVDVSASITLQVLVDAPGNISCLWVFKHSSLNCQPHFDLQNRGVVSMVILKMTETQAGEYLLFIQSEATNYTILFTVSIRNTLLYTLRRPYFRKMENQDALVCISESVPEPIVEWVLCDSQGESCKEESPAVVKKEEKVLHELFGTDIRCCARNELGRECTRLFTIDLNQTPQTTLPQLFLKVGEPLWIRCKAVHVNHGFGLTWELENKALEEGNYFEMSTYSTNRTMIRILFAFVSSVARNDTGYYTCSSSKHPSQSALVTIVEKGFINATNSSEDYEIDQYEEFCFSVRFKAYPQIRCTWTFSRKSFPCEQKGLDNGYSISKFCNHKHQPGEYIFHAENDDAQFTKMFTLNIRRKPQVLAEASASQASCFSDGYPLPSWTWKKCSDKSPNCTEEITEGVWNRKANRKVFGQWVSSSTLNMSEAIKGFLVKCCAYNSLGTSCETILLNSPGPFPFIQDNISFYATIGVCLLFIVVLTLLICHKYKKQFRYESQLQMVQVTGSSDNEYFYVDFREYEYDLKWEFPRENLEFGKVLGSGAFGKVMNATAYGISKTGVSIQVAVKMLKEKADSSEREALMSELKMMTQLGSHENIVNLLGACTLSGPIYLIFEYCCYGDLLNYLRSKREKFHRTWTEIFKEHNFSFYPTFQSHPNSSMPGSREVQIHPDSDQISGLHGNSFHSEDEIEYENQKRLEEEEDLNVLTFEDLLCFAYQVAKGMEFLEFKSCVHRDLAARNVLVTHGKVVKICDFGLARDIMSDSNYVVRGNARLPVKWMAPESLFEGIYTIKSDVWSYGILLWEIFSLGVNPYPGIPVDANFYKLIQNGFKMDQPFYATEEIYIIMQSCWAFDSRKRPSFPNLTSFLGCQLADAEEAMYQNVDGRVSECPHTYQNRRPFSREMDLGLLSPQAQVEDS
Experimental: (§1) In vitro profiling of the MELK, MELK (T460M) kinase panel was performed at Reaction Biology Corporation using the “HotSpot” assay platform. In vitro profiling of the FLT3, FLT3 mutant forms; FLT3 (D835Y), FLT3 (F594R595insR), FLT3 (F594R595insREY), FLT3 (ITD), FLT3 (ITD)-NPOS, FLT3 (ITD)-W51 and FLT3 (R595_E596insEY) kinase panel is performed in the same manner.
(§2) Briefly, specific kinase/substrate pairs along with required cofactors were prepared in reaction buffer; 20 mM Hepes (pH 7.5), 10 mM MgCl2, 1 mM EGTA, 0.02% Brij35, 0.02 mg/mL BSA, 0.1 mM Na3VO4, 2 mM DTT, 1% DMSO. Compounds were delivered into the reaction, followed ˜20 min later by addition of a mixture of ATP (Sigma) and ^33P ATP (PerkinElmer) to a final concentration of […]. Reactions were carried out at 25° C. for 120 min, followed by spotting of the reactions onto P81 ion exchange filter paper (Whatman). Unbound phosphate was removed by extensive washing of filters in 0.75% phosphoric acid. […] IC50 values and curve fits were obtained using Prism (GraphPad Software).

MELK = molecular target: T2, MELK (Homo sapiens, UniProt Q14680); assay: HotSpot kinase assay, MELK; type: biochemical; details: HotSpot radiometric 33P ATP assay, 25° C., 120 min
T2 construct: purchased Reaction Biology Corporation
Experimental: as §1, §2

T2 sequence (Q14680 whole entry): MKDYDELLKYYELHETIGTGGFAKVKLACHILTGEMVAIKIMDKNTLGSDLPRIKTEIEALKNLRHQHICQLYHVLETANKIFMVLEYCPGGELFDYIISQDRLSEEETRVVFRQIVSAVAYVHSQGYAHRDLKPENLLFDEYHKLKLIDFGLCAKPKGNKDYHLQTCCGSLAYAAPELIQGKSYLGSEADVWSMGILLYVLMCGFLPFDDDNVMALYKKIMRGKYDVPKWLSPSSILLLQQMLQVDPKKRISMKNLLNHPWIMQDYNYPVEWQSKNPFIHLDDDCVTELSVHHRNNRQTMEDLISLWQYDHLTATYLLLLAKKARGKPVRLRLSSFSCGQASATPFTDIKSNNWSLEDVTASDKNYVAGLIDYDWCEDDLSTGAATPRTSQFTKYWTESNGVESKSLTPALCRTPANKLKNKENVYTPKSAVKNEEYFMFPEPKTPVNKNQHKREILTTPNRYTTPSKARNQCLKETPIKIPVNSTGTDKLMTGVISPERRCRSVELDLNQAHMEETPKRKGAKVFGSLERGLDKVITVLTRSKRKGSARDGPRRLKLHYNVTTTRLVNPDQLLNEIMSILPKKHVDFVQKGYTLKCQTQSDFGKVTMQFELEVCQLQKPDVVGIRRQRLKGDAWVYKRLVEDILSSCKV

| IC50 (FLT3) [nM] | IC50 (MELK) [nM] | Compound |
| --- | --- | --- |
| 200 to 1000 | > 1000 | Cc1cccc(F)c1-n1cc(-c2ncncc2OC[C@H]2CC[C@@H](N)CC2)cn1 [Compound I-14, (1s,4s)-4-(((4-(1-(2-fluoro-6-methylphenyl)-1H-pyrazol-4-yl)pyrimidin-5-yl)oxy)methyl)cyclo-hexan-1-amine] |
| < 200 | 200 to 1000 | CC(C)N[C@H]1CC[C@@H](COc2cncnc2-c2cnn(-c3ccccc3F)c2)CC1 [Compound I-15, (1s,4s)-4-(((4-(1-(2-fluorophenyl)-1H-pyrazol-4-yl)pyrimidin-5-yl)oxy)methyl)-N-isopropylcyclohexan-1-amine] |
| > 1000 | > 1000 | CC(C)N1CCC(COc2cncnc2-c2cnn(-c3ccccc3F)c2)CC1 [Compound I-16, 4-(1-(2-fluorophenyl)-1H-pyrazol-4-yl)-5-((1-isopropylpiperidin-4-yl)methoxy)pyrim-idine] |
| 200 to 1000 | 200 to 1000 | CC(Oc1cncnc1-c1cnn(-c2ccccc2F)c1)[C@H]1CC[C@@H](N)CC1 (stereo partly drawn) [Compound I-17, (1S,4s)-4-((R)-1-((4-(1-(2-fluorophenyl)-1H-pyrazol-4-yl)pyrimidin-5-yl)oxy)ethyl)cyclo-hexan-1-amine] |
| 200 to 1000 | > 1000 | Cc1cccc(F)c1-n1cc(-c2ncncc2OC[C@H]2CCC[C@@H](N)C2)cn1 [Compound I-18, (1R,3S)-3-(((4-(1-(2-fluoro-6-methylphenyl)-1H-pyrazol-4-yl)pyrimidin-5-yl)oxy)methyl)cyclo-hexan-1-amine] |
| < 200 | < 200 | N[C@H]1CC[C@@H](CCOc2cncnc2-c2cnn(-c3ccccc3F)c2)CC1 [Compound I-19, (1s,4s)-4-(2-((4-(1-(2-fluorophenyl)-1H-pyrazol-4-yl)pyrimidin-5-yl)oxy)ethyl)cyclo-hexan-1-amine] |
| 200 to 1000 | > 1000 | N[C@H]1CC[C@@H](COc2cncnc2-c2cnn(-c3cc(F)cc(F)c3)c2)CC1 [Compound I-20, (1s,4s)-4-(((4-(1-(3,5-difluorophenyl)-1H-pyrazol-4-yl)pyrimidin-5-yl)oxy)methyl)cyclo-hexan-1-amine] |
| < 200 | < 200 | N[C@H]1CC[C@@H](COc2cncnc2-c2cnn(-c3ccc(O)c(F)c3)c2)CC1 [Compound I-21, 4-(4-(5-(((1s,4s)-4-aminocyclohexyl)meth-oxy)pyrimidin-4-yl)-1H-pyrazol-1-yl)-2-fluorophenol] |
| < 200 | < 200 | COc1ccc(-n2cc(-c3ncncc3OC[C@H]3CC[C@@H](N)CC3)cn2)cc1F [Compound I-22, (1s,4s)-4-(((4-(1-(3-fluoro-4-methoxyphenyl)-1H-pyrazol-4-yl)pyrimidin-5-yl)oxy)methyl)cyclo-hexan-1-amine] |
| < 200 | < 200 | Fc1ccccc1-n1cc(-c2ncncc2OCC2CCNCC2)cn1 [Compound I-23, 4-(1-(2-fluorophenyl)-1H-pyrazol-4-yl)-5-(piperidin-4-ylmethoxy)pyrim-idine] |
| > 1000 | > 1000 | Fc1ccccc1-n1cc(-c2ncncc2NCC2CCNCC2)cn1 [Compound I-24, 4-(1-(2-fluorophenyl)-1H-pyrazol-4-yl)-N-(piperidin-4-ylmethyl)pyrimidin-5-amine] |
| < 200 | < 200 | N[C@H]1CC[C@@H](COc2cncnc2-c2cnn(-c3ccccc3F)c2)CC1 [Compound I-25, (1s,4s)-4-(((4-(1-(2-fluorophenyl)-1H-pyrazol-4-yl)pyrimidin-5-yl)oxy)methyl)cyclo-hexan-1-amine] |
| < 200 | < 200 | N[C@H]1CC[C@H](COc2cncnc2-c2cnn(-c3ccccc3F)c2)CC1 [Compound I-26, (1r,4r)-4-(((4-(1-(2-fluorophenyl)-1H-pyrazol-4-yl)pyrimidin-5-yl)oxy)methyl)cyclo-hexan-1-amine] |
| < 200 | 200 to 1000 | Fc1ccccc1-n1cc(-c2ncnc(Cl)c2OCC2CCNCC2)cn1 [Compound I-27, 4-chloro-6-(1-(2-fluorophenyl)-1H-pyrazol-4-yl)-5-(piperidin-4-ylmethoxy)pyrim-idine] |
| 200 to 1000 | 200 to 1000 | c1ccc(-n2cc(-c3ncncc3OCC3CCNCC3)cn2)cc1 [Compound I-28, 4-(1-phenyl-1H-pyrazol-4-yl)-5-(piperidin-4-ylmethoxy)pyrim-idine] |
| 200 to 1000 | > 1000 | Fc1cccc(F)c1-n1cc(-c2ncnc(Cl)c2OCC2CCNCC2)cn1 [Compound I-29, 4-chloro-6-(1-(2,6-difluorophenyl)-1H-pyrazol-4-yl)-5-(piperidin-4-ylmethoxy)pyrim-idine] |
| 200 to 1000 | 200 to 1000 | Fc1cccc(F)c1-n1cc(-c2ncncc2OCC2CCNCC2)cn1 [Compound I-30, 4-(1-(2,6-difluorophenyl)-1H-pyrazol-4-yl)-5-(piperidin-4-ylmethoxy)pyrim-idine] |
| 200 to 1000 | > 1000 | OC1CCC(COc2cncnc2-c2cnn(-c3ccccc3F)c2)CC1 (centres unmarked) [Compound I-31, 4-(((4-(1-(2-fluorophenyl)-1H-pyrazol-4-yl)pyrimidin-5-yl)oxy)methyl)cyclo-hexan-1-ol] |
| < 200 | < 200 | CN1CCN(c2ccc(-n3cc(-c4ncncc4OC[C@H]4CC[C@@H](N)CC4)cn3)cc2)CC1 [Compound I-32, (1s,4s)-4-(((4-(1-(4-(4-methylpiperazin-1-yl)phenyl)-1H-pyrazol-4-yl)pyrimidin-5-yl)oxy)methyl)cyclo-hexan-1-amine] |
| < 200 | < 200 | N[C@H]1CC[C@@H](COc2cncnc2-c2cnn(-c3ccc(N4CCOCC4)cc3)c2)CC1 [Compound I-33, (1s,4s)-4-(((4-(1-(4-morpholinophenyl)-1H-pyrazol-4-yl)pyrimidin-5-yl)oxy)methyl)cyclo-hexan-1-amine] |
| < 200 | 200 to 1000 | CCS(=O)(=O)c1ccc(-n2cc(-c3ncncc3OC[C@H]3CC[C@@H](N)CC3)cn2)cc1 [Compound I-34, (1s,4s)-4-(((4-(1-(4-(ethylsulfonyl)phenyl)-1H-pyrazol-4-yl)pyrimidin-5-yl)oxy)methyl)cyclo-hexan-1-amine] |
| 200 to 1000 | 200 to 1000 | CCS(=O)(=O)c1ccc(-n2cc(-c3ncncc3OC[C@H]3CC[C@@H](N)CC3)cn2)c(F)c1 [Compound I-35, (1s,4s)-4-(((4-(1-(4-(ethylsulfonyl)-2-fluorophenyl)-1H-pyrazol-4-yl)pyrimidin-5-yl)oxy)methyl)cyclo-hexan-1-amine] |
